Experimental data taken from patent US20010027216A1, “Method for preventing hormone induced adverse effects” (priority 2000, published 2001).
“Also recorded” adds a separate entry of the source.

Tests used:
Assay type in all cases: cell-based, human
[1] = system: ECC-1 endometrial cancer cells; test: ECC-1 cell proliferation, [3H]thymidine incorporation into DNA; details: for cell proliferation rate (cpm): concentration range 0.01 to 4 μM (FIG. 1 panel A); for effect on endometrial cancer cell growth over increasing concentrations: three days
Experimental: Cells were cultured in DMEM containing penicillin (100 U/ml), streptomycin (0.1 mg/ml)) nystatin (12.5 (g/ml), insulin (0.6 (g/ml), and 10% FCS. Cells were stripped of endogenous steroids according to the procedure of Vignon et al. (1987, Biochem. Biophys. Res. Comm., 146:1502-8) by successive passages in medium without phenol red containing 10% and then 3% of charcoal-stripped FCS. Cells were seeded into 96 multiwell plates (5,000 cells per well) in DMEM containing 3% of charcoal-stripped FCS. After one day the medium was changed to one containing the solubilized carotenoid or THF alone. The medium was changed daily to ensure a continuous supply of carotenoid. After incubation, the number of cells and the rate of cell proliferation were estimated by the incorporation of [^3H]thymidine incorporation into cellular DNA, as described in U.S. Pat. No. 5,827,900. Cell growth was also measured by direct cell counting with a Coulter counter after trypsinization and dilution in Isotone-II (Coulter Electronics, Luton, England). A good correlation was found between the two methods. ECC-1 cells were incubated with increasing concentrations of the isoflavones genistein and daidzein, the two primary isoflavones in soy products, and with soy extract. Cell proliferation after three days was measured by [^3H]thymidine incorporation into DNA (FIG. 1, panel A). […] ECC-1 cells were also incubated with a single high concentration (40 μM) of each of genistein, daidzein and soy extract. Cell proliferation was assayed daily over the course of three days.

[2] = system: MCF-7 mammary cancer cells; test: MCF-7 cell proliferation, [3H]thymidine incorporation; details: for phytoestrogen-induced cell proliferation: genistein 4 μM
Experimental: (§1) Cells were cultured in DMEM containing penicillin (100 U/ml), streptomycin (0.1 mg/ml)) nystatin (12.5 (g/ml), insulin (0.6 (g/ml), and 10% FCS. Cells were stripped of endogenous steroids according to the procedure of Vignon et al. (1987, Biochem. Biophys. Res. Comm., 146:1502-8) by successive passages in medium without phenol red containing 10% and then 3% of charcoal-stripped FCS. Cells were seeded into 96 multiwell plates (5,000 cells per well) in DMEM containing 3% of charcoal-stripped FCS. After one day the medium was changed to one containing the solubilized carotenoid or THF alone. The medium was changed daily to ensure a continuous supply of carotenoid.
(§2) After incubation, the number of cells and the rate of cell proliferation were estimated by the incorporation of [^3H]thymidine incorporation into cellular DNA, as described in U.S. Pat. No. 5,827,900. Cell growth was also measured by direct cell counting with a Coulter counter after trypsinization and dilution in Isotone-II (Coulter Electronics, Luton, England). A good correlation was found between the two methods.
The comparative effects of estradiol and genistein supplementation on the proliferation of the hormone-dependent cell lines MCF-7 mammary cancer and ECC-1 endometrial cancer were examined (FIG. 2).
MCF-7 mammary cancer cells were stimulated by genistein (4 μM) and test cultures were additionally supplemented with lycopene or phytoene or a combination of both, at either physiological concentrations (FIG. 6, panel A) or at about one order of magnitude greater than the physiological concentrations (FIG. 6, panel B).

[3] = system: MDA-231 mammary cancer cells; test: MDA-231 cell proliferation, [3H]thymidine incorporation
Experimental: as §1, §2
Thus genistein not only stimulates hormone-dependent cancer cell proliferation, but IGF-I as well as other growth factors further augment this effect.

[4] = stimulated by estradiol at 10 nM (FIG. 4)
[5] = stimulated by genistein at 1 μM (FIG. 4)
[6] = lycopene 3 to 5 μM, three days in culture
[7] = high, non-physiological concentrations of the individual carotenoids (FIG. 6, panel B)
[8] = lycopene 3 to 5 μM, IGF-1 30 nM
[9] = 40 μM, after one day of incubation (FIG. 1, panel B)
[10] = 0.4 and 4 μM, after three days (FIG. 1, panel A)

CC1=C(/C=C/C(C)=C/C=C/C(C)=C/C=C/C=C(C)/C=C/C=C(C)/C=C/C2=C(C)CCCC2(C)C)C(C)(C)CCC1 [beta-carotene]
estradiol-induced cell proliferation [1, 4]: effectively inhibited
genistein-induced cell proliferation [1, 5]: effective inhibitors; also recorded: effectively inhibited

CC(C)=CCC/C(C)=C/C=C/C(C)=C/C=C/C(C)=C/C=C/C=C(C)/C=C/C=C(C)/C=C/C=C(\C)CCC=C(C)C [lycopene]
estradiol-induced cell proliferation ([1]; estradiol 10 nM, various concentrations of lycopene, lowest 0.9 μM (FIG. 5)): all lycopene concentrations tested were effective in inhibiting
genistein-induced cell proliferation ([1]; genistein 1 μM, various concentrations of lycopene, lowest 0.9 μM (FIG. 5)): all lycopene concentrations tested were effective in inhibiting
basal growth [1, 6]: significantly inhibited
estrogen-induced (either genistein or estradiol) growth [1, 6]: substantially inhibited; also recorded: significantly inhibited
estradiol-induced cell proliferation [1, 4]: effectively inhibited
genistein-induced cell proliferation [1, 5]: effective inhibitors; also recorded: effectively inhibited
phytoestrogen-induced cell proliferation [2, 7]: effective in significantly inhibiting
phytoestrogen-induced cell proliferation ([2]; low (physiological) concentration: lycopene 0.4 μM, mixture of phytoene and phytofluene 6 μM (FIG. 6, panel A)): do not significantly affect
IGF stimulation of cell growth [2, 8]: inhibits IGF stimulation
basal growth [2, 6]: significantly inhibited
estrogen-induced (either genistein or estradiol) growth [2, 6]: substantially inhibited; also recorded: significantly inhibited
IGF stimulation of cell growth [3, 8]: inhibits IGF stimulation
cell proliferation compared with controls [3, 8]: reduced to levels less than that of controls

IGF-1: Human recombinant IGF-1 purchased from GroPep
cell growth ([2]; IGF-1 30 nM (FIG. 3, panel A)): significantly stimulates cell growth
cell growth ([3]; IGF-1 30 nM (FIG. 3, panel B)): significantly stimulates cell growth

CC(C)=CCC/C(C)=C/CC/C(C)=C/CC/C(C)=C/C=C/C=C(\C)CC/C=C(\C)CC/C=C(\C)CCC=C(C)C [phytoene]
genistein-induced cell proliferation [1, 5]: effective inhibitors
phytoestrogen-induced cell proliferation [2, 7]: effective in significantly inhibiting

O=c1c(-c2ccc(O)cc2)coc2cc(O)ccc12 [daidzein, reference compound]
cell proliferation [1, 9]: significantly increases cell proliferation; also recorded: stimulated cell proliferation
cell proliferation [1, 10]: stimulated cell proliferation
cell proliferation rate (cpm) [1]: significant increase in cell proliferation rate
effect on endometrial cancer cell growth over increasing concentrations [1]: only stimulatory

CC1=C(/C=C/C(C)=C/C=C/C(C)=C/C=C/C=C(C)/C=C/C=C(C)/C=C/C2=C(C)C(=O)[C@@H](O)CC2(C)C)C(C)(C)C[C@H](O)C1=O [astaxanthin]
estradiol-induced cell proliferation [1, 4]: effectively inhibited
genistein-induced cell proliferation [1, 5]: effective inhibitors; also recorded: effectively inhibited

O=c1c(-c2ccc(O)cc2)coc2cc(O)cc(O)c12 [genistein, reference compound]
cell proliferation [1, 9]: significantly increases cell proliferation; also recorded: stimulated cell proliferation
cell proliferation ([1]; 40 μM, second day in culture (FIG. 1, panel B)): inhibitory effects
cell proliferation [1, 10]: stimulated cell proliferation
cell proliferation rate (cpm) [1]: significant increase in cell proliferation rate
cell proliferation ([1]; higher, non-physiological concentrations (10 μM), after three days in culture (FIG. 1, panel A)): inhibited cell proliferation
effect on endometrial cancer cell growth over increasing concentrations [1]: biphasic effects on proliferation, stimulating at low concentrations and inhibiting at high concentrations
effect on proliferation over increasing concentrations ([2]; increasing concentrations (FIG. 2, panel A)): biphasic effects on proliferation, stimulating at low concentrations and inhibiting at high concentrations
stimulatory effect of genistein in the presence of IGF-I ([2]; with IGF-1 30 nM (FIG. 3, panel A)): further augmented
stimulation of cell growth by genistein ([3]; FIG. 3, panel B): not by genistein
